Data reported in patent publication US20250361490A1, “COMPOSITION AND METHOD FOR CRYOPRESERVATION OF MITOCHONDRIA” (cellvie AG, priority 2022, published 2025).

test system: isolated mitochondria from human cardiac fibroblast (HCF) cells; assay: Mitochondrial membrane potential assay (MitoTracker Red CMXRos / MitoTracker Green FM staining); format: cell-based; settings: single cryoprotectant at 5%, 10%, 20% (v/v) in trehalose-based isolation buffer; frozen on dry ice, thawed 37° C.; normalized to non-frozen control
Description: Procedure: Isolated mitochondria in the form of pellets were resuspended in two different isolation buffers containing respectively either 300 mM sucrose or 300 mM trehalose and then frozen in 1.5 ml Eppendorf tubes by placing them either in liquid nitrogen for approximately 1 minute or on dry ice for approximately 3 minutes. For thawing, the tubes were placed in a 37° C. water bath until the entire sample was thawed, and then immediately transferred on ice.
To assess the mitochondrial membrane potential, the isolated mitochondria were resuspended either in the sucrose-containing isolation buffer or in the trehalose-containing isolation buffer at 1 mg/ml, and 15 μg of mitochondrial suspension were used for each sample. Both non-frozen mitochondria and mitochondria frozen and thawed according to procedure described under section 2.2 were stored on ice until use, e.g., stored for a period of 5 minutes to maximum 60 minutes, preferably for a few minutes (e.g., for a period of maximum 15 minutes, such as 5 minutes or 10 minutes). For Mitotracker Red CMXRos/Mitotracker Green FM staining, a labelling solution was prepared, by adding 200 nM MitoTracker Red CMxROS and 200 nM MitoTracker Green FM (Thermo Fisher) in the isolation buffer. The isolated mitochondria were then suspended in 1 ml of the labelling solution, vortexed and incubated for 15 minutes in a 37° C. incubator. Mitochondria were sedimented by centrifugation at 9500 g for 5 minutes at 4° C., washed once with the respective isolation buffer, and resuspended in the isolation buffer at a concentration of 1 mg/ml. […] MitoTracker Red or MitoTracker Green signal was quantified using Keyence BZ-800 Analyzer software, integrated brightness per image was taken for calculations and averaged between images taken from one sample.
The effect of cryoprotectant addition on maintaining integrity of the inner mitochondrial membrane was studied using MitoTracker staining assay, as described in Example 2.3. […] Alle frozen samples were thawed in a 37° C. water bath and analyzed by MitoTracker staining.

Structure (SMILES)	integrity of the inner mitochondrial membrane (MitoTracker Red staining)
O=C(O)[C@@H]1CCCN1 [CRYO6, L-Proline]	preserve mitochondria inner membrane integrity
OC[C@H]1O[C@@](CO)(O[C@H]2O[C@H](CO)[C@@H](O)[C@H](O)[C@H]2O)[C@@H](O)[C@@H]1O [CRYO25, D-(+)-Sucrose]	preserve mitochondria inner membrane integrity
O.O=C[C@H](O)[C@@H](O)[C@H](O)[C@H](O)CO [CRYO33, D-(+)-Glucose monohydrate]	preserve mitochondria inner membrane integrity
